According to ChEMBL document CHEMBL3875179 (Eur J Med Chem, 2016):
pIC50: −log10 of the molar value.

Tests used:
[1] = target: Cholinesterase (Equus caballus) (UniProt P81908); experiment: Inhibition of equine serum BChE using butyrylthiocholine iodide as substrate at 10^-4 M preincubated for 15 mins followed by substrate addition and measured for 5 mins by Ellmans method
[2] = target: Cholinesterase (Equus caballus) (UniProt P81908); experiment: Inhibition of equine serum BChE using butyrylthiocholine iodide as substrate at 10^-3 M preincubated for 15 mins followed by substrate addition and measured for 5 mins by Ellmans method
[3] = target: Acetylcholinesterase (Electrophorus electricus, UniProt O42275); experiment: Inhibition of electric eel AChE using acetylthiocholine iodide as substrate preincubated for 15 mins followed by substrate addition and measured for 5 mins by Ellmans method
Acetylcholinesterase, sequence (O42275 whole entry): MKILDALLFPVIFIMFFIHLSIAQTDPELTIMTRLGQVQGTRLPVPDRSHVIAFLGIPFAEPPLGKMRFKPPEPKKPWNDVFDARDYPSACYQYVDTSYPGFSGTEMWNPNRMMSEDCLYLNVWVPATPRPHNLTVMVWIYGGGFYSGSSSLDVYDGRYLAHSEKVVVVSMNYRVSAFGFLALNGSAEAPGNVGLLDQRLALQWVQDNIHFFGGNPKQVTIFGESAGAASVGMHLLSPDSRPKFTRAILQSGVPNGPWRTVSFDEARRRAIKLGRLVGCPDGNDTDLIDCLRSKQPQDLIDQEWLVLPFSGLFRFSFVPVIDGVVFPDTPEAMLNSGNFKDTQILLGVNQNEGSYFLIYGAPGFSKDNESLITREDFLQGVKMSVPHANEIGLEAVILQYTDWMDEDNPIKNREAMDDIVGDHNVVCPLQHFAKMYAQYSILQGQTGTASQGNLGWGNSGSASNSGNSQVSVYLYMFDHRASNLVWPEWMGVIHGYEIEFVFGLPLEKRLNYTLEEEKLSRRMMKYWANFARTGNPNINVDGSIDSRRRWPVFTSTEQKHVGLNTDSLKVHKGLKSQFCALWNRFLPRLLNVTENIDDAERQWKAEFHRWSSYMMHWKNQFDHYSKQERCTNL

[4] = Cytotoxicity against mouse NIH/3T3 cells after 24 hrs by MTT assay; type: toxicity, NIH3T3
[5] = Selectivity index, ratio of IC50 for mouse NIH/3T3 cells to IC50 for electric eel AChE

Cholinesterase (Equus caballus), sequence (P81908 whole entry): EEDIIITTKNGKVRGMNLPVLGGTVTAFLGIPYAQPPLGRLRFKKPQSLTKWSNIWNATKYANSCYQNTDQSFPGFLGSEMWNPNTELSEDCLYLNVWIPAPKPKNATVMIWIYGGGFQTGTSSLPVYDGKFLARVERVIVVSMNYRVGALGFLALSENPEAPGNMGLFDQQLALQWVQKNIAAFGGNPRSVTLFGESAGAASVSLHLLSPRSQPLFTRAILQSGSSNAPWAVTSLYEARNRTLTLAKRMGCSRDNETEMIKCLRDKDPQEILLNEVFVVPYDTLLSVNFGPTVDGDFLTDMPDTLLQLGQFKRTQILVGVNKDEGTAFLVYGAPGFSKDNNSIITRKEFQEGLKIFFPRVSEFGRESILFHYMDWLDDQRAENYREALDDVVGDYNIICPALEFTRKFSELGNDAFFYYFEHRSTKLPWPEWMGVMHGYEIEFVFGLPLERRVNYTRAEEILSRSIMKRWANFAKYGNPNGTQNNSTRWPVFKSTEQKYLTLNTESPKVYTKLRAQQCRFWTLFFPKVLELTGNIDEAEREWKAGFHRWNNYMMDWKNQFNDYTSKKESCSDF

| SMILES | inhibition [1] [%] | inhibition [2] [%] | pIC50 [3] | IC50 at 24 h [4] [µM] | Ratio IC50 [5] |
| --- | --- | --- | --- | --- | --- |
| COc1ccc2c(c1)C/C(=C/c1ccc(N3CCCC3)cc1)C2=O | 1.25 | 3.08 | – | – | – |
| COc1ccc(NC(=O)CN2CCC(CC3Cc4cc(OC)c(OC)cc4C3=O)CC2)cc1OC (configuration not stated) | 1.29 | 5.85 | – | – | – |
| CCN1CCN(c2ccc(/C=C3/Cc4cc(OC)c(OC)cc4C3=O)cc2)CC1 | 8.56 | 16.9 | – | – | – |
| COc1cc2c(cc1OC)C(=O)C(CC1CCN(CC(=O)Nc3nc4ccc([N+](=O)[O-])cc4s3)CC1)C2 (configuration not stated) | 1.13 | 4.18 | – | – | – |
| COc1cc2c(cc1OC)C(=O)/C(=C\c1ccc(N3CCN(C)CC3)cc1)C2 | 8.55 | 19.2 | – | – | – |
| COc1cc2c(cc1OC)C(=O)/C(=C\c1ccc(N3CCN(CCCN(C)C)CC3)cc1)C2 | 13.9 | 18.7 | 5.31 | 78 | – |
| COc1ccc2c(c1)C(=O)/C(=C\c1ccc(N3CCN(CCCN(C)C)CC3)cc1)C2 | 10.1 | 16.1 | 5.22 | 78 | 13 |
| COc1cc2c(cc1OC)C(=O)C(CC1CCN(CC(=O)Nc3nc4cc(OC)c(OC)cc4s3)CC1)C2 (configuration not stated) | 2.05 | 3.77 | – | – | – |
| COc1ccc2c(c1)C(=O)/C(=C\c1ccc(N3CCN(C)CC3)cc1)C2 | 9.63 | 14.7 | – | – | – |
| COc1cc2c(cc1OC)C(=O)C(CC1CCN(CC(=O)Nc3ccc(C)cc3)CC1)C2 (configuration not stated) | 3.2 | 5.89 | – | – | – |
| COc1cc2c(cc1OC)C(=O)/C(=C\c1ccc(N3CCN(c4ccccc4)CC3)cc1)C2 | 1.08 | 3.22 | – | – | – |
| COc1cc2c(cc1OC)C(=O)C(CC1CCN(CC(=O)Nc3nc4ccccc4s3)CC1)C2 (configuration not stated) | 2.31 | 5.23 | – | – | – |
| CCN1CCN(c2ccc(/C=C3/Cc4ccc(OC)cc4C3=O)cc2)CC1 | 4.2 | 5.05 | – | – | – |
| COc1ccc2c(c1)C/C(=C/c1ccc(N3CCN(C)CC3)cc1)C2=O | 7.56 | 12.9 | – | – | – |
| COc1ccc(NC(=O)CN2CCC(CC3Cc4cc(OC)c(OC)cc4C3=O)CC2)cc1 (configuration not stated) | 1.33 | 4.28 | – | – | – |
| CCN(CC)c1ccc(/C=C2/Cc3cc(OC)c(OC)cc3C2=O)cc1 | 1.96 | 3.76 | – | – | – |
| COc1cc2c(cc1OC)C(=O)C(CC1CCN(CC(=O)Nc3ccc(F)cc3)CC1)C2 (configuration not stated) | 1.99 | 4.75 | – | – | – |
| COc1ccc2nc(NC(=O)CN3CCC(CC4Cc5cc(OC)c(OC)cc5C4=O)CC3)sc2c1 (configuration not stated) | 3.19 | 5.33 | – | – | – |
| COc1ccc2c(c1)C/C(=C/c1ccc(N3CCN(c4ccccc4)CC3)cc1)C2=O | 2.38 | 5.2 | – | – | – |

| SMILES | inhibition [1] [%] | inhibition [2] [%] | pIC50 [3] | IC50 at 24 h [4] [µM] | Ratio IC50 [5] |
| --- | --- | --- | --- | --- | --- |
| COc1ccc2c(c1)C/C(=C/c1ccc(N3CCN(CCN(C)C)CC3)cc1)C2=O | 9.56 | 15.2 | – | – | – |
| COc1cc2c(cc1OC)C(=O)C(CC1CCN(CC(=O)Nc3ccc(Cl)cc3)CC1)C2 (configuration not stated) | 2.77 | 5.39 | – | – | – |
| COc1cc2c(cc1OC)C(=O)C(CC1CCN(CC(=O)Nc3ccccc3)CC1)C2 (configuration not stated) | 2.58 | 5 | – | – | – |
| CCN(CC)c1ccc(/C=C2/Cc3cc(OC)ccc3C2=O)cc1 | 5.27 | 10.3 | – | – | – |
| COc1ccc2c(c1)C(=O)/C(=C\c1ccc(N3CCN(CCO)CC3)cc1)C2 | 1.25 | 3.45 | – | – | – |
| COc1cc2c(cc1OC)C(=O)C(CC1CCN(CC(=O)Nc3nc4ccc(C)cc4s3)CC1)C2 (configuration not stated) | 2.08 | 4.29 | – | – | – |
| COc1cc2c(cc1OC)C(=O)C(CC1CCN(CC(=O)Nc3nc4ccc(F)cc4s3)CC1)C2 (configuration not stated) | 3.1 | 4.89 | – | – | – |
| COc1ccc2c(c1)C/C(=C/c1ccc(N3CCN(CCCN(C)C)CC3)cc1)C2=O | 11.3 | 16 | 5.07 | 230 | 27 |
| COc1cc2c(cc1OC)C(=O)/C(=C\c1ccc(N3CCCC3)cc1)C2 | 2.77 | 4.98 | – | – | – |
| COc1cc2c(cc1OC)C(=O)/C(=C\c1ccc(N3CCN(CCN(C)C)CC3)cc1)C2 | 12.1 | 17 | 5.20 | 320 | 50 |
| COc1ccc2c(c1)C(=O)/C(=C\c1ccc(N3CCN(CCN(C)C)CC3)cc1)C2 | 10.6 | 17.2 | – | – | – |
| COc1ccc2c(c1)C/C(=C/c1ccc(N3CCN(CCO)CC3)cc1)C2=O | 5.91 | 7.63 | – | – | – |
| COc1ccc2c(c1)C(=O)/C(=C\c1ccc(N3CCCC3)cc1)C2 | 3.18 | 5.7 | – | – | – |
| CCN(CC)c1ccc(/C=C2/Cc3ccc(OC)cc3C2=O)cc1 | 1.65 | 2.8 | – | – | – |
| COc1ccc2c(c1)C(=O)/C(=C\c1ccc(N3CCN(c4ccccc4)CC3)cc1)C2 | 1.06 | 1.73 | – | – | – |
| COc1cc2c(cc1OC)C(=O)C(CC1CCN(CC(=O)Nc3ccc([N+](=O)[O-])cc3)CC1)C2 (configuration not stated) | 2.69 | 4.88 | – | – | – |
| COc1cc2c(cc1OC)C(=O)C(CC1CCN(CC(=O)Nc3nc4ccc(Cl)cc4s3)CC1)C2 (configuration not stated) | 3.09 | 6.21 | – | – | – |
| COc1cc2c(cc1OC)C(=O)/C(=C\c1ccc(N3CCN(CCO)CC3)cc1)C2 | 7.55 | 18.2 | – | – | – |
| CCN1CCN(c2ccc(/C=C3/Cc4cc(OC)ccc4C3=O)cc2)CC1 | 8.77 | 15.1 | – | – | – |
